Laboratory results: patent publication US12295920B2, “Composition for treatment, prevention, or amelioration of Alzheimer's disease, a composition for suppression of brain nerve cell death, a composition for suppression of microglia activation induced by amyloid β peptide, and a composition for suppression of PGE2, TNF-α, or IL-1β production induced …” (House Wellness Foods Corporation, priority 2018, dated 2025)

Experiments:
[1] = system: macrophage cells differentiated from THP-1 cells; experiment: Suppression of PGE2 production by macrophage cells activated by amyloid β peptide aggregate (ELISA); assay type: cell-based, human; settings: 12.5 to 100 μM compound, 24 h pretreatment; 25 μM Aβ aggregate 24 h; FIG. 1
Description: (§1) 1.4. Evaluation of Activity of Suppressing Activation of Macrophage Cells Induced by Amyloid β Peptide Cells of the human monocytic cell line THP-1 were suspended in RPMI1640 (10% FBS) medium, the cells were seeded in a 96-well plate at 8.0×10^4 cells/well, 100 nM 12-O-tetradecanoylphorbol 13-acetate (PMA, differentiation-inducing factor) was added thereto, and culture was conducted in the presence of 5% CO2 for 24 hours to differentiate the cells into macrophage cells. Thereafter, the medium was exchanged with another RPMI1640 (10% FBS) medium containing either the turmeric extracts (50, 100, and 200 μg/ml), termeronol A (12.5, 25, 50, or 100 μM), or termeronol B (12.5, 25, 50, or 100 μM), and culture was conducted in the presence of 5% CO2 for 24 hours to treat the cells with each specimen. Thereafter, the medium was exchanged with another RPMI1640 (2% FBS) medium containing an aggregate of 25 μM amyloid β peptides (Aβ), and culture was conducted in the presence of 5% CO2 for 24 hours to activate the cells. Thereafter, prostaglandin E2 (PGE2), the tumor necrosis factor α (TNF-α), and interleukin-1β (IL-1β) released in the medium were assayed via ELISA.

[2] = system: macrophage cells differentiated from THP-1 cells; experiment: Suppression of IL-1β production by macrophage cells activated by amyloid β peptide aggregate (ELISA); assay type: cell-based, human; settings: 50 μM and 100 μM compound, 24 h pretreatment; 25 μM Aβ aggregate 24 h; FIG. 3
Description: as §1

[3] = system: macrophage cells differentiated from THP-1 cells; experiment: Suppression of TNF-α production by macrophage cells activated by amyloid β peptide aggregate (ELISA); assay type: cell-based, human; settings: 50 μM and 100 μM compound, 24 h pretreatment; 25 μM Aβ aggregate 24 h; FIG. 2
Description: as §1

[4] = system: human neuroblastoma SHSY5Y cells; experiment: Cell death of SHSY5Y cells induced by conditioned medium of Aβ-activated macrophage cells (WST-1 assay); assay type: cell-based; settings: macrophage cells pretreated with termeronol B 50 μM 24 h, then 25 μM Aβ 12 h; SHSY5Y 48 h in conditioned medium; vs control (Aβ+); FIG. 4
Description: Cells of the human monocytic cell line THP-1 were suspended in RPMI1640 (10% FBS) medium, the cells were seeded in a 96-well plate at 8.0×10^4 cells/well, 100 nM 12-O-tetradecanoylphorbol 13-acetate (PMA, differentiation-inducing factor) was added thereto, and culture was conducted in the presence of 5% CO2 for 24 hours to differentiate the cells into macrophage cells. […]
WST-1 assays comprise: adding WST-1 (2-(4-iodophenyl)-3-(4-nitrophenyl)-5-(2,4-disulfophenyl)-2H-tetrazolium, monosodium salt, Dojindo Laboratories) to each well containing cells; conducting culture in a CO2 incubator for a given period of time to generate water-soluble formazan from WST-1 with the activity of dehydrogenase in mitochondria of viable cells; and assaying the concentration of the generated formazan. […] The formazan concentration was determined based on the absorbance at 450 nm using a microplate reader (reference wavelength: 630 nm). […]

| SMILES | enhancement of PEG2 production by Aβ treatment [1] | enhancement of IL-1β production by Aβ treatment [2] | enhancement of TNF-α production by Aβ treatment [3] | activity of the culture supernatant for inducing cell death of brain neuronal cells [4] |
| --- | --- | --- | --- | --- |
| CC(C)=CC(=O)CC(C)c1ccc(C)c(O)c1 (stereo not shown) [termeronol A, Termeronol A] | suppress the enhancement of PEG2 production | suppress the enhancement of IL-1β production | suppress the enhancement of TNF-α production |  |
| CC(C)=CC(=O)CC(C)c1ccc(C)cc1O (stereo not shown) [termeronol B, Termeronol B] | suppress the enhancement of PEG2 production | suppress the enhancement of IL-1β production | suppress the enhancement of TNF-α production | more suppressed |
